Each compound was assayed against Aldo-keto reductase family 1 member B1 (Rattus norvegicus) (UniProt P07943) (assay: Inhibition of Rattus norvegicus albino (rat) kidney aldose reductase using D-L-glyceraldehyde as substrate assessed as decrease in NADPH concentration at 3.3 x 10^-6 M after 5 min by spectrophotometric analysis).

| Structure (SMILES) | inhibition |
| --- | --- |
| C=C(NC(C)=O)C(=O)N1CCCC1 | 0% |
| C=C(NC(C)=O)C(=O)NC(C)CC (stereo not given) | 0% |
| C=C(NC(C)=O)C(=O)NC(C)(C)CC | 3.22% |
| C=C(NC(C)=O)C(=O)NC(C)C | 3.77% |
| C=C(NC(C)=O)C(=O)Nc1nnc(CC)s1 | 4.5% |
| C=C(NC(C)=O)C(=O)N1CCCCC1 | 3.4% |

Next, values leading:

| inhibition | Structure (SMILES) |
| --- | --- |
| 0% | C=C(NC(C)=O)C(=O)NCc1ccccc1OC |
| 4.13% | C=C(NC(C)=O)C(=O)NCCC(C)C |
| 2.3% | C=C(NC(C)=O)C(=O)NCc1ccc(Cl)cc1 |
| 19.6% | C=C(NC(C)=O)C(=O)NCCCCl |
| 9.46% | C=C(NC(C)=O)C(=O)NC |
| 4.32% | C=C(NC(C)=O)C(=O)NCCC |
| 13.1% | C=C(NC(C)=O)C(=O)NCC |
| 2.48% | C=C(NC(C)=O)C(=O)NCc1ccccc1 |
| 7.26% | C=C(NC(C)=O)C(=O)NCc1ccccc1Cl |

Source: ChEMBL document CHEMBL3045691, “Evaluation of rat kidney aldose reductase inhibitory activity of some N-acetyl dehydroalanine derivatives” (Med Chem Res, 2011)
